# Experimental data reported in publication PMC9944867, “Mechanistic in vitro studies indicate that the clinical drug–drug interactions between protease inhibitors and rosuvastatin are driven by inhibition of intestinal BCRP and hepatic OATP1B1 with minimal contribution from OATP1B3, NTCP and OAT3” (Pharmacology Research & Perspectives, 2023).
# Values joined by “and” are separate entries in the source; they are usually repeats but may differ in a detail not shown here. Equal values may be shown once. Read-outs that look alike come from different tables or passages of the source.
# Columns and labels:
# [1] = Pharmacokinetic parameters of protease inhibitors in clinical interaction studies with rosuvastatin; conditions: calculated, clinical dose of Table 5
# [2] = tested on: intestinal BCRP and hepatic OATP1B1, OATP1B3, NTCP
# OAT3 = tested on: OAT3; set-up: method as in Yoshida et al.[32]; conditions: up to 10 μM; ref Yoshida et al.[32]; cited from earlier work
# BCRP = molecular target: T1, BCRP (Homo sapiens, UniProt Q9UNQ0); assay: Caco-2 unidirectional (B-A) BCRP inhibition assay, [3H]-estrone 3-sulfate transport (IC50 determination)
# T1 sequence (Q9UNQ0 1-655): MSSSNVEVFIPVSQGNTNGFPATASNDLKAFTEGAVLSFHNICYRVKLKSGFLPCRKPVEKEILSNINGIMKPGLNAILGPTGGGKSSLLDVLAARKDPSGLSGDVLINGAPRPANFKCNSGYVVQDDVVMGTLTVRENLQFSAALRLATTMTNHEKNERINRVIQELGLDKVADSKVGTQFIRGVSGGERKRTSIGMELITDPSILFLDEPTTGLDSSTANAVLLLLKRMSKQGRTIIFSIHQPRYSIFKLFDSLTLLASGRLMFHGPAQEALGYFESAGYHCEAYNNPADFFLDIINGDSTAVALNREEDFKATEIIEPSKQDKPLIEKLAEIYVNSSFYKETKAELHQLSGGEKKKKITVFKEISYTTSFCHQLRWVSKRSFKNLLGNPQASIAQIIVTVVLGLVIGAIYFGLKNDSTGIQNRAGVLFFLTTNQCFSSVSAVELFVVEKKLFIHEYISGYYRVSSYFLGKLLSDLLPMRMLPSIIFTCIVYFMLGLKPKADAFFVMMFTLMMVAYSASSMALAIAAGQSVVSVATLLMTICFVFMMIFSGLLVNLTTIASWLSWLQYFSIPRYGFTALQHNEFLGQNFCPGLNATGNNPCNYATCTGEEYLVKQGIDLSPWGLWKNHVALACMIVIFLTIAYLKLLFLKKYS
# Method: The methodology used was adapted from the previously validated Caco‐2 unidirectional (basolateral to apical; B‐A) BCRP inhibition assay.[13]
# The BCRP inhibition experiments were performed between day 18 to 22 post‐seeding. […] After pre‐incubation, transport buffer was removed and the appropriate donor solutions were added to the basolateral donor compartment. […] Receiver solutions (final DMSO concentration of ≤1 % v/v) in transport buffer containing either the corresponding concentration of test inhibitor or DMSO (vehicle control), and the fluorescent cell monolayer integrity marker lucifer yellow (100 μM), were added to the apical compartments (total volume = 90 μL). Incubations were conducted in triplicate wells per assay condition in a heated incubator at 37°C for 90 min. Following the incubation, the amount (pmol) of [^3H]‐estrone 3‐sulfate appearing in the receiver compartment was determined by sampling (50 μL) into a white walled clear bottomed multiwell plate, to which scintillation fluid (200 μL) was added, and then samples counted on a Microbeta2 liquid scintillation counter (PerkinElmer). The quantified amount (derived from disintegrations per minute; DPM) of [^3H]‐estrone 3‐sulfate was subsequently converted to concentration (pmol/mL) and used to calculate apparent permeability (Papp), as described previously.[18]
# human NTCP (SLC10A1) = molecular target: T2, human NTCP (SLC10A1) (Homo sapiens, UniProt Q14973); assay: NTCP single concentration inhibition screen in HEK293 cells; assay type: cell-based; conditions: ≥10x [Iin max u]: atazanavir 50 μM, darunavir 15 μM, lopinavir 5 μM, ritonavir 0.3 μM; [3H]-taurocholic acid 1 μM
# T2 construct: host or cells: HEK293 TransportoCells
# T2 sequence (Q14973 1-349): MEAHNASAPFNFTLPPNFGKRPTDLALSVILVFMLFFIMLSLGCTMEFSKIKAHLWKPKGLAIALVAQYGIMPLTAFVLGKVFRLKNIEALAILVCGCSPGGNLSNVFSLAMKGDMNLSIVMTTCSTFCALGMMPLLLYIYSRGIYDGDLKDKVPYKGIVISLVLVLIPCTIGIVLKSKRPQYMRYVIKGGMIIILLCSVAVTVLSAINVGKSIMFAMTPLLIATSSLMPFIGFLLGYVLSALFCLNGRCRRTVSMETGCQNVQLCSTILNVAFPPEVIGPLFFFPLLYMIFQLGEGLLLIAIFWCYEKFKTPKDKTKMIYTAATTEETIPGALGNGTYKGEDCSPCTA
# human OATP1B1 (SLCO1B1) = molecular target: T3, human OATP1B1 (SLCO1B1) (Homo sapiens, UniProt Q9Y6L6); assay: OATP1B1 inhibition in transporter-expressing HEK293 cells, [3H]-estradiol 17β-D-glucuronide uptake (IC50 determination); conditions: OATP1B1-mediated transport of [3H]-estradiol 17β-D-glucuronide (0.02 μM), HEK293
# T3 sequence (Q9Y6L6 1-691): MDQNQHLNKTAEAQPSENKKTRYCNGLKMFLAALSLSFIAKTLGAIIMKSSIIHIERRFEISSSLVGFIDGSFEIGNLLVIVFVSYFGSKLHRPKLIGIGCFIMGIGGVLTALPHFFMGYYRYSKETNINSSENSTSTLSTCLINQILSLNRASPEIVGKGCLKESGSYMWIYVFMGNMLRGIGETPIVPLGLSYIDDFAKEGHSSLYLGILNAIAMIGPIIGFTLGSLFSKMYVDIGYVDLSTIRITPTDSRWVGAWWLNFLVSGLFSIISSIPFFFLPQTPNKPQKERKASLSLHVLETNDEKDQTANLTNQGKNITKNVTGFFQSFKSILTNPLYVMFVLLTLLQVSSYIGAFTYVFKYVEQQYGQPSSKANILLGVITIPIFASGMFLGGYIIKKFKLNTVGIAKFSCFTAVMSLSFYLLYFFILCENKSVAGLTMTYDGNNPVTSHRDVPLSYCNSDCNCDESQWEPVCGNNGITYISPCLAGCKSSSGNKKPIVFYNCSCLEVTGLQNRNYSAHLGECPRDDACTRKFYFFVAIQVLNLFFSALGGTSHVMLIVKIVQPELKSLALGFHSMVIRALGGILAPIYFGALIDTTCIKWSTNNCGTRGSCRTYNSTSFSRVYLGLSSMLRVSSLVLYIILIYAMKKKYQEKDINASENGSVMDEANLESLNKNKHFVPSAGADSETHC
# Method: OATP1B1, OATP1B3, NTCP and vector control cell lines were cultured and subsequent transporter assays conducted as described above using the same transporter‐specific probe substrates and incubation times. For OATP1B1, the probe substrate was [^3H]‐estradiol 17β‐D‐glucuronide (0.02 μM) incubated for 2 min, with rifamycin SV (100 μM) as positive control inhibitor. For IC50 determinations, the only difference to the method performed above was that the 15‐min pre‐incubation step contained a range of six concentrations of protease inhibitor drug, and subsequent incubations were conducted with the same six concentration levels of drug rather than with a single concentration.
# OATP1B3 = tested on: OATP1B3; set-up: method as in Vildhede et al.[33]; conditions: ref Vildhede et al.[33], cited from earlier work
# [3] = IC50 mean (BCRP), BCRP-mediated B-A transport of [3H]-estrone 3-sulfate (1 μM), Caco-2, mean (±SD) of occasions, IC50 equates to Ki
# [4] = IC50, determined values from different occasions (OATP1B1), single occasion
# [5] = IC50 mean (OATP1B1), mean (±SD) of three occasions
[Ig] maximal enterocyte concentration ([1]; (FaFg × ka × dose)/Qent),[Iin max u] unbound maximum hepatic inlet concentration [1],[Iin max] maximum hepatic inlet concentration [1],inhibition [2],SMILES,"Inhibition of OAT3, published (OAT3)",IC50 (BCRP),IC50 (BCRP; [3]),"Inhibition of NTCP-mediated probe substrate transport, single concentration screen (human NTCP (SLC10A1))",IC50 (human OATP1B1 (SLCO1B1); [4]),IC50 (human OATP1B1 (SLCO1B1); [5]),Published IC50/Ki (OATP1B3) (OATP1B3; probe substrate atorvastatin),"Inhibition of OATP1B3, published (OATP1B3; tested up to 10 μM)"
142 µM,4.90 µM,35.0 µM,~80% and 75%,COC(=O)N[C@H](C(=O)N[C@@H](Cc1ccccc1)[C@@H](O)CN(Cc1ccc(-c2ccccn2)cc1)NC(=O)[C@@H](NC(=O)OC)C(C)(C)C)C(C)(C)C [atazanavir],no inhibition,49.8 µM and 30.3 µM and 51.5 µM and 37.1 µM,42.2 µM,produced inhibition,0.583 µM and 0.69 µM,0.734 µM,7.3 (atorvastatin) μM,–
–,–,–,–,Cc1cccc(C)c1OCC(=O)N[C@@H](Cc1ccccc1)[C@@H](O)C[C@H](Cc1ccccc1)NC(=O)[C@H](C(C)C)N1CCCNC1=O [lopinavir],no inhibition,12.7 µM and 18.3 µM and 15.6 µM,15.5 µM,produced inhibition,0.291 µM and 0.207 µM and 0.162 µM,0.22 µM,–,no inhibition
